Laboratory results published in patent US20220175713A1, “DEPSIDE TRIMERIC COMPOUNDS FOR SKELETAL MUSCLE MODULATION” (SOCIETE DES PRODUITS NESTLE S.A., priority 2019, published 2022).

Test system: mouse hindlimb muscles injured with cardiotoxin
Assay: In vivo muscle regeneration after intramuscular cardiotoxin injury
Details: mice, oral gavage 100 mg/kg body weight once a day from one week before injury, muscles harvested 5 days after injury, vs. water control, FIG. 6
Experimental: Early phase of expansion and subsequent phase of myogenic differentiation of Muscle Stem Cells were evaluated by counting the number of Pax7+ cells (A) and myogenin+ cells (B), respectively. Data are expressed as number of cells per area of injured muscle. The size of each newly formed myofiber (C) has been measured based on the expression of the eMHC and laminin that allow to recognize and delineate these nascent myofibers. Results are shown as mean myofiber cross-sectional area (μm^2).
In order to reproduce the physiological process of muscle regeneration that occurs in adult skeletal muscles in response to injury or disease, we performed an intramuscular injection of cardiotoxin into mouse hindlimb muscles. One week prior to the induction of the muscle injury, mice were given by oral gavage gyrophoric acid (at 100 mg/kg body weight) vs. water control. […] Several myogenic markers were then measured. […]
Early phase of expansion and subsequent phase of myogenic differentiation of Muscle Stem Cells were evaluated by counting the number of Pax7+ cells (FIG. 6A) and myogenin+ cells (FIG. 6B), respectively. Data are expressed as number of cells per area of injured muscle. The size of each newly formed myofiber (FIG. 6C) has been measured based on the expression of the eMHC and laminin that allow to recognize and delineate these nascent myofibers. […]

SMILES: Cc1cc(OC(=O)c2c(C)cc(OC(=O)c3c(C)cc(O)cc3O)cc2O)cc(O)c1C(=O)O [gyrophoric acid, 4-[4-(2,4-dihydroxy-6-methylbenzoyl)oxy-2-hydroxy-6-methylbenzoyl]oxy-2-hydroxy-6-methylbenzoic acid]
- in vivo muscle regeneration process (Pax7+ cells, myogenin+ cells, size of newly formed myofibers): Able to Promote the In Vivo Muscle Regeneration Process
